Patent US9211310B2, “Use of a Chinese medicine composition in preparing medicaments for treating secondary prevention of myocardial infarction” (TASLY PHARMACEUTICAL GROUP CO., LTD, priority 2010, dated 2015)

Tested on: patients after acute myocardial infarction
Experiment: Life quality, Seattle Angina Questionnaire (SAQ), same clinical trial
Format: in vivo, human
Details: FAS
Text: 3508 patients who were in accordance with the diagnostic standards of AMI for 28 days to 2 years and differentiated as Qi deficiency and blood stagnation syndrome by TCM were studied. 0.5 g Chinese medicine composition prepared by the method of EXAMPLE 1 (Coded as QSYQ) was administrated half an hour after meal, 3 times per day.
There were 19 questions in the Seattle angina questionnaire (SAQ), including 5 parts: physical limitation (PL), anginal stability (AS), anginal frequency (AF), treatment satisfaction (TS) and disease perception (DP). After being given necessary explanation by doctors, the questions were answered independently by patients.
They included the overall survival time, angina pectoris score, TCM symptom score and life quality score, where angina pectoris score, TCM symptom score and life quality score were evaluated at randomization, in 1st, 3rd, 6th, 9th, 12th month after treatment and 18th month after follow-up.
All evaluation results of SAQ were described during the period of observation, and Wilcoxon rank sum test was used for inter-group comparison.
The evaluation results in the SAQ were depicted in different observations, and inter-group comparison was tested by Wilcoxon Rank-sum test.

In the case of CC(=O)Oc1ccccc1C(=O)O [Control group, aspirine], the “SAQ Question 1-2 Moderately limited, number of patients” value (1 month after treatment) is reported as 14, the “SAQ Question 1-2 Moderately limited, percent of patients” value (1 month after treatment) is reported as “(0.80%)” and the “SAQ Question 1-2 Not limited, number of patients” value (1 month after treatment) is reported as 1575. The “SAQ Question 1-2 Not limited, percent of patients” value (1 month after treatment) was “(90.36%)”, the “SAQ Question 1-2 Other reasons, number of patients” value (1 month after treatment) was 6 and the “SAQ Question 1-2 Other reasons, percent of patients” value (1 month after treatment) was “(0.34%)”. The “SAQ Question 1-2 Severely limited, number of patients” value (1 month after treatment) was 0, the “SAQ Question 1-2 Severely limited, percent of patients” value (1 month after treatment) was “(0.00%)” and the “SAQ Question 1-2 Slightly limited, percent of patients” value (1 month after treatment) was “(6.66%)”. The “SAQ Question 1-6: Mildly limited, patients (%)” value (1 month after treatment) was “(18.54%)”, the “SAQ Question 1-6: Moderately limited, patients (%)” value (1 month after treatment) was “(14.85%)” and the “SAQ Question 1-6: Not limited, patients (%)” value (1 month after treatment) was “(29.59%)”. For the same molecule, the “SAQ Question 1-6: Other reasons, patients (%)” value (1 month after treatment) was “(0.81%)”, the “SAQ Question 1-6: Severely limited, patients (%)” value (1 month after treatment) was “(5.18%)” and the “SAQ Question 1-6: Slightly limited, patients (%)” value (1 month after treatment) was “(31.03%)”. For the same molecule, the “SAQ Question 1-7: Mildly limited, patients (%)” value (1 month after treatment) was “(23.73%)”, the “SAQ Question 1-7: Moderately limited, patients (%)” value (1 month after treatment) was “(17.45%)” and the “SAQ Question 1-7: Not limited, patients (%)” value (1 month after treatment) was “(12.86%)”. The “SAQ Question 1-7: Other reasons, patients (%)” value (1 month after treatment) was “(2.85%)”, the “SAQ Question 1-7: Severely limited, patients (%)” value (1 month after treatment) was “(17.68%)” and the “SAQ Question 1-7: Slightly limited, patients (%)” value (1 month after treatment) was “(25.42%)”. The “SAQ Question 1-8: Mildly limited, patients (%)” value (1 month after treatment) was “(24.13%)”, the “SAQ Question 1-8: Moderately limited, patients (%)” value (1 month after treatment) was “(20.52%)” and the “SAQ Question 1-8: Not limited, patients (%)” value (1 month after treatment) was “(9.01%)”. For the same molecule, the “SAQ Question 1-8: Other reasons, patients (%)” value (1 month after treatment) was “(2.79%)”, the “SAQ Question 1-8: Severely limited, patients (%)” value (1 month after treatment) was “(22.27%)” and the “SAQ Question 1-8: Slightly limited, patients (%)” value (1 month after treatment) was “(21.28%)”. For the same molecule, the “8th question: Dissatisfied, patients (%)” value (3 months after treatment) was “(0.17%)”, the “8th question: Highly satisfied, patients (%)” value (3 months after treatment) was “(19.09%)” and the “8th question: Mostly dissatisfied, patients (%)” value (3 months after treatment) was “(3.10%)”. For the same molecule, the “8th question: Mostly satisfied, patients (%)” value (3 months after treatment) was “(52.81%)”, the “8th question: Partly satisfied, patients (%)” value (3 months after treatment) was “(24.83%)” and the “9th question: Few, patients (%)” value (3 months after treatment) was “(31.88%)”. For the same molecule, the “9th question: Mild, patients (%)” value (3 months after treatment) was “(33.54%)”, the “9th question: Moderate, patients (%)” value (3 months after treatment) was “(15.60%)” and the “9th question: Severe, patients (%)” value (3 months after treatment) was “(1.49%)”. For the same molecule, the “9th question: Uneffective, patients (%)” value (3 months after treatment) was “(17.49%)”, the “10th question: Dissatisfied, patients (%)” value (3 months after treatment) was “(21.33%)” and the “10th question: Highly satisfied, patients (%)” value (3 months after treatment) was “(4.70%)”. The “10th question: Mostly dissatisfied, patients (%)” value (3 months after treatment) was “(22.19%)”, the “10th question: Mostly satisfied, patients (%)” value (3 months after treatment) was “(24.20%)” and the “10th question: Partly satisfied, patients (%)” value (3 months after treatment) was “(27.58%)”. The “11th question: Continuously worried, patients (%)” value (3 months after treatment) was “(5.39%)”, the “11th question: No worried, patients (%)” value (3 months after treatment) was “(4.87%)” and the “11th question: Occasionally worried, patients (%)” value (3 months after treatment) was “(40.94%)”. The “11th question: Often worried, patients (%)” value (3 months after treatment) was “(18.29%)”, the “11th question: Seldom worried, patients (%)” value (3 months after treatment) was “(30.50%)” and the “SAQ 4th question, 1-2 times per week: % of patients” value (3 months after treatment) was “(16.69%)”. The “SAQ 4th question, 1-2 times per week: number of patients” value (3 months after treatment) was 291, the “SAQ 4th question, 1-3 times per day: % of patients” value (3 months after treatment) was “(5.56%)” and the “SAQ 4th question, 1-3 times per day: number of patients” value (3 months after treatment) was 97. The “SAQ 4th question, <1 time per week: % of patients” value (3 months after treatment) was “(11.47%)”, the “SAQ 4th question, <1 time per week: number of patients” value (3 months after treatment) was 200 and the “SAQ 4th question, Not used: % of patients” value (3 months after treatment) was “(55.50%)”. For the same molecule, the “SAQ 4th question, Not used: number of patients” value (3 months after treatment) was 968, the “SAQ 4th question, ≧3 times per week: % of patients” value (3 months after treatment) was “(10.72%)” and the “SAQ 4th question, ≧3 times per week: number of patients” value (3 months after treatment) was 187. For the same molecule, the “SAQ 4th question, ≧4 times per day: % of patients” value (3 months after treatment) was “(0.06%)”, the “SAQ 4th question, ≧4 times per day: number of patients” value (3 months after treatment) was 1 and the “SAQ 5th question, Few: % of patients” value (3 months after treatment) was “(24.60%)”. The “SAQ 5th question, Few: number of patients” value (3 months after treatment) was 429, the “SAQ 5th question, Mild: % of patients” value (3 months after treatment) was “(26.26%)” and the “SAQ 5th question, Mild: number of patients” value (3 months after treatment) was 458. The “SAQ 5th question, Moderate: % of patients” value (3 months after treatment) was “(15.65%)”, the “SAQ 5th question, Moderate: number of patients” value (3 months after treatment) was 273 and the “SAQ 5th question, None: % of patients” value (3 months after treatment) was “(27.41%)”. The “SAQ 5th question, None: number of patients” value (3 months after treatment) was 478, the “SAQ 5th question, Not medicated by doctors: % of patients” value (3 months after treatment) was “(4.36%)” and the “SAQ 5th question, Not medicated by doctors: number of patients” value (3 months after treatment) was 76. For the same molecule, the “SAQ 5th question, Severe: % of patients” value (3 months after treatment) was “(1.72%)”, the “SAQ 5th question, Severe: number of patients” value (3 months after treatment) was 30 and the “SAQ 6th question, Dissatisfied: % of patients” value (3 months after treatment) was “(0.23%)”. For the same molecule, the “SAQ 6th question, Dissatisfied: number of patients” value (3 months after treatment) was 4, the “SAQ 6th question, Highly satisfied: % of patients” value (3 months after treatment) was “(19.61%)” and the “SAQ 6th question, Highly satisfied: number of patients” value (3 months after treatment) was 342. The “SAQ 6th question, Mostly dissatisfied: % of patients” value (3 months after treatment) was “(2.64%)” and the “SAQ 6th question, Mostly dissatisfied: number of patients” value (3 months after treatment) was 46.
